Patent US6720424B1, “Aminobenzoic acid derivatives” (Taisho Pharmaceutical Co., Ltd., priority 1999, dated 2004)
Like-named read-outs stand apart in the source and are kept apart here.

Legend:
Flt-1 = target: T1, Flt-1 (Homo sapiens, UniProt P17948); test: (125I)-VEGF binding inhibition on NIH3T3 cells in which Flt-1 was forced to be expressed; conditions: Flt-1-expressing NIH3T3 cells, (125I)-VEGF 25 pM, 90 minutes; read-out: IC50 (concentration of 50% binding inhibition)
T1 construct: expressed in transfected cells; host or cells: NIH3T3
T1 sequence (P17948 27-1338): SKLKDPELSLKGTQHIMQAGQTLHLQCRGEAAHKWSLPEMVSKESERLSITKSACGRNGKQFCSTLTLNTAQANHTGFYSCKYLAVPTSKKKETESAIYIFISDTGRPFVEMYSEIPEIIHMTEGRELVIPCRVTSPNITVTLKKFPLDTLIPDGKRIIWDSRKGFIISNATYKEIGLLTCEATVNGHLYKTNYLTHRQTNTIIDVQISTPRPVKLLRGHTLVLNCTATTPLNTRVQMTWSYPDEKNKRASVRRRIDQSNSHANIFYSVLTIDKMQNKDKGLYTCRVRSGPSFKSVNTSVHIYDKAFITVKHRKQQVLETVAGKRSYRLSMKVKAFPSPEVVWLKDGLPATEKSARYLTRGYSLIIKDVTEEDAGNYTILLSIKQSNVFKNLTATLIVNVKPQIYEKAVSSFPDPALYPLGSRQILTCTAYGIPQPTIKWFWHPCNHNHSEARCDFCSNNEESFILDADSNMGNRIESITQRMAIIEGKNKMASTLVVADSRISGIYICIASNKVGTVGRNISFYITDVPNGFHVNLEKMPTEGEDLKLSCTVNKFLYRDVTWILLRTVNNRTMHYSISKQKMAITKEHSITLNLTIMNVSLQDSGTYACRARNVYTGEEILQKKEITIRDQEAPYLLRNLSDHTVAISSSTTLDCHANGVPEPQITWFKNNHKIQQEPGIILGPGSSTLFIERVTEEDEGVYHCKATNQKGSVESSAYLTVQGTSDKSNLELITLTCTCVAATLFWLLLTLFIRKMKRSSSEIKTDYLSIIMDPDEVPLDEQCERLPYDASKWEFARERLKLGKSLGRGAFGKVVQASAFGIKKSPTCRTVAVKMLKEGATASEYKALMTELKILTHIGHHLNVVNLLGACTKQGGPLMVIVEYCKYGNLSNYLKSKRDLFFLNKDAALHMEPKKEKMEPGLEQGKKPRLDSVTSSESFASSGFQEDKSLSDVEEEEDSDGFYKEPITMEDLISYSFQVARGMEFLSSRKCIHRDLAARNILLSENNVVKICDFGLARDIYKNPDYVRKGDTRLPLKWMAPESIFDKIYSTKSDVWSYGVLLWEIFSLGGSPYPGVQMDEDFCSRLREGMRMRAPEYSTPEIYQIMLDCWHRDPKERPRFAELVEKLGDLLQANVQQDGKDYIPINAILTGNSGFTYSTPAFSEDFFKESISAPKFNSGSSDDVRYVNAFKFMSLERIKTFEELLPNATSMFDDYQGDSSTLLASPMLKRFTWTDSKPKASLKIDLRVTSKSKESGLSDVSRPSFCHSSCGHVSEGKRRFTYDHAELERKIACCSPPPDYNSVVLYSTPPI
Description: (§1) According to the method described in a document (Cell Growth & Differentiation, vol. 7, pp. 213-221, 1996), the following tests were carried out.
(§2) NIH3T3 cells in which Flt-1 was forced to be expressed were seeded on a 24-well collagen-coated plate (7×10^4/well), and were cultured in Dulbecco's modified Eagle's medium (DMEM) including 10% bovine serum and 200 μg/ml of Geneticin G418, for 24 hours at 37° C. under an atmosphere of 5% carbon dioxide gas. The cells were preincubated in Buffer A (including 10 mM HEPES (N-2-hydroxyethylpiperazine-N′-2-ethanesulfonic acid) and 0.1% BSA (bovine serum albumin) in DMEM), for 30 minutes at 4° C. Subsequently, the medium was replaced with Buffer B (including 10 mM HEPES and 0.5% BSA in DMEM). A test solution prepared by dissolving each of the test compounds shown in Table 19 in dimethylsulfoxide and subsequently diluting the solution into a prescribed concentration with Buffer B, and (^125I)-VEGF (the final concentration was set to 25 pM) were added thereto. Binding reaction was carried out for 90 minutes at […]. After completion of the reaction, the cells were washed three times with ice-cooled Buffer A. Subsequently, 0.5 ml of 0.5M NaOH were added to each well, and the cells were lysed in 30 minutes at room temperature. The radioactivity of the lysed cells in each well was measured by means of a gamma counter, and a total binding quantity of (^125I)-VEGF was calculated. Nonspecific binding quantity of (^125I)-VEGF was measured by competition assay in the presence of 10 nM non-labeled VEGF. The specific binding quantity of (^125I)-VEGF was calculated from the difference between the total binding quantity of (^125I)-VEGF and nonspecific binding quantity of (^125I)-VEGF.
(§3) The binding inhibition index of the test compounds was calculated by the following equation. [formula]
(§4) From this value, a concentration of 50% binding inhibition (IC50) of the test compound was calculated.

KDR = target: T2, KDR (Homo sapiens, UniProt P35968); test: (125I)-VEGF binding inhibition on NIH3T3 cells in which KDR was forced to be expressed; conditions: KDR-expressing NIH3T3 cells, (125I)-VEGF 25 pM, 90 minutes, read-out: IC50 (concentration of 50% binding inhibition)
T2 construct: expressed in transfected cells; host or cells: NIH3T3
T2 sequence (P35968 20-1356): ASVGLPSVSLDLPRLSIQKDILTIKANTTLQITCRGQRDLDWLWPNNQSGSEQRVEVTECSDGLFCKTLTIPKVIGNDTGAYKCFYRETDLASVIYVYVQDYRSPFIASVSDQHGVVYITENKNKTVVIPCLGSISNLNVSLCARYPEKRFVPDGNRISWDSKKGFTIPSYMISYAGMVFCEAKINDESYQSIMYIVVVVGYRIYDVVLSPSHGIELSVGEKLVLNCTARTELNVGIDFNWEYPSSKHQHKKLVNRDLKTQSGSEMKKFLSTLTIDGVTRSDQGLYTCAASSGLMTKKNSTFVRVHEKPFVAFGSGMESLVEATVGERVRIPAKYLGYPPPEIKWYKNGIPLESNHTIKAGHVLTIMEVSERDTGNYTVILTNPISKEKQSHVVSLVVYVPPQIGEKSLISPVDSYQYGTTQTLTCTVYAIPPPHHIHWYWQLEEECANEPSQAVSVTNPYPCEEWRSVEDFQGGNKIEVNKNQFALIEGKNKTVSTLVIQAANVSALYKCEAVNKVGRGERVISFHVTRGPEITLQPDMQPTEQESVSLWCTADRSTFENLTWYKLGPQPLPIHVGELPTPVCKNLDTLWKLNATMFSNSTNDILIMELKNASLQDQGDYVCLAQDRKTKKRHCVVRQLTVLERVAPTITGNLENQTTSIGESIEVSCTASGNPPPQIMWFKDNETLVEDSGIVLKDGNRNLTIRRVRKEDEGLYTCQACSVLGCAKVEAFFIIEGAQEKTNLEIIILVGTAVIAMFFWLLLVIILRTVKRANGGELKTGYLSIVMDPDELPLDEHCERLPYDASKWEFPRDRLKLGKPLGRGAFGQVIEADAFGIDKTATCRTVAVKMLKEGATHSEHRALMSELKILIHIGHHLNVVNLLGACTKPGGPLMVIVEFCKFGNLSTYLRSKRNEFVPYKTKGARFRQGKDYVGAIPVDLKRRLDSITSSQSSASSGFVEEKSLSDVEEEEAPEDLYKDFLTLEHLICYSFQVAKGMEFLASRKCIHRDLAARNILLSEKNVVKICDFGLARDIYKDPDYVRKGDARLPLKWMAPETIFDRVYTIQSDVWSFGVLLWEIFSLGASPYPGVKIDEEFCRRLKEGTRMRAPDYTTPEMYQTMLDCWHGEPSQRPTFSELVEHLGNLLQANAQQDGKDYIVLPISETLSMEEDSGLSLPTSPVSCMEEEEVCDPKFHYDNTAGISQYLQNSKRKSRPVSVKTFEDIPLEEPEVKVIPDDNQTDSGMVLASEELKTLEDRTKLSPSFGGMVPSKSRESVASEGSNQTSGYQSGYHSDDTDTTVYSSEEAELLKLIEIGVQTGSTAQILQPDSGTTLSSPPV
Description: as §1, §2, §3, §4
Test on each of the test compounds shown in Table 20 and Table 21 was carried out employing NIH3T3 cells in which KDR was forced to be expressed, in the same manner as described in Experimental Example 1 described above.

melting point [°C]	IC50 (Flt-1) [nM]	IC50 (KDR; Table 20) [nM]	IC50 (KDR; Table 21) [nM]	SMILES
213 to 215	680	510	–	CCCCCCCCCCCCCCCCCCOc1ccc(CCC(=O)Nc2ccc(Oc3ccc(C(=O)O)cc3)c(C(=O)O)c2)cc1 [Compound 27]
201 to 205	710	420	–	CCCCCCCCCCCCCCCCCCOc1ccc(CCC(=O)Nc2ccc(Oc3cccc(C(=O)O)c3)c(C(=O)O)c2)cc1 [Compound 28]
106 to 108	280	–	80	CCCCCCCCCCCCCCCCCCOc1ccc(CCC(=O)N(C)c2ccc(SC)c(C(=O)O)c2)cc1 [Compound 113]
–	420	–	340	CCCCCCCCCCCCCCCCCCOc1ccc(CC(=O)N(C)c2ccc(SC)c(C(=O)O)c2)cc1 [Compound 114]
87 to 88.5	–	–	500	CCCCCCCCCCCCCCCCCCOc1ccc(CC(=O)N(C)c2ccc(SCC)c(C(=O)O)c2)cc1 [Compound 154]
76 to 80	–	–	670	CCCCCCCCCCCCCCCCCCOc1ccc(CC(=O)N(C)c2ccc(SCCC)c(C(=O)O)c2)cc1 [Compound 155]
114 to 117.5	–	–	1300	CCCCCCCCCCCCCCCCCCOc1ccc(CC(=O)N(C)c2ccc(SCCO)c(C(=O)O)c2)cc1 [Compound 161]
104.5 to 106.5	–	–	1160	CCCCCCCCCCCCCCCCCCOc1ccc(CC(=O)N(C)c2ccc(SCCCO)c(C(=O)O)c2)cc1 [Compound 162]
163.5 to 169.5	–	–	410	CCCCCCCCCCCCCCCCCCOc1ccc(NCC(=O)Nc2ccc(SC)c(C(=O)O)c2)cc1 [Compound 163]
151 to 158	–	–	570	CCCCCCCCCCCCCCCCCCNc1ccc(CCC(=O)Nc2ccc(SC)c(C(=O)O)c2)cc1 [Compound 164]
